In US9951065B2 (Gilead Sciences, Inc., priority 2015, dated 2018):

Biological target: T1, IDO1 (Homo sapiens, UniProt P14902)
T1 construct: HeLa cells were treated with a test compound in the presence of IFNγ, which induces IDO1 expression; host or cells: H1-HeLa cells, IDO1 induced with IFNγ
Assay: Cell-based (HeLa) assay for measurement of IDO1 inhibition (kynurenine levels in supernatant after IFNγ induction)
Conditions: HeLa cells, geometric mean of a minimum of four determinations
Procedure, shortened: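 HeLa cells, 1,250 per well, treated with compound (0.5% DMSO final) plus IFNγ to induce IDO1, for 48 h. Supernatant kynurenine measured by TCA hydrolysis at 60 °C, then p-dimethylaminobenzaldehyde, absorbance 480 nm. EC50 from a four-parameter fit normalized to −/+IFNγ controls; geometric mean of at least four runs.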

[1] = IFNγ-induced IDO1, kynurenine in supernatant after 48 hour incubation
[2] = IFNγ-induced IDO1, kynurenine in supernatant, 48 hour incubation

T1 sequence (P14902 whole entry): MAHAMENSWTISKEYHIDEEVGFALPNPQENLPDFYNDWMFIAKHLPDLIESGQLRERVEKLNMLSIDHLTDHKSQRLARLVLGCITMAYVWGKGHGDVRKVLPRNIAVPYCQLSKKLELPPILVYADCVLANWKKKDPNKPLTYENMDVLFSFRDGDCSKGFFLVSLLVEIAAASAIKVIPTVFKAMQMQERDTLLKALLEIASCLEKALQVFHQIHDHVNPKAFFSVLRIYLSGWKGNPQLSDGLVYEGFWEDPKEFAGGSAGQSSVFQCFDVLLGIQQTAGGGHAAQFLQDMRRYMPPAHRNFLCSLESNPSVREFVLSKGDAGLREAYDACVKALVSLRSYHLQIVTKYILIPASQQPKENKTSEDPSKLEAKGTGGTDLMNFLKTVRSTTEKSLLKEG

SMILES	EC50 [1] [nM]	EC50 [2] [nM]
Cc1ccc(/C(=N/O)Nc2ccc(F)c(Cl)c2)c2[nH]cnc12 [Example 1, N-(3-Chloro-4-fluorophenyl)-N′-hydroxy-4-methyl-1H-benzo[d]imidazole-7-carboximidamide]	1220	
O/N=C(\Nc1ccc(C(F)(F)F)cc1)c1ccnc2nc[nH]c12 [Example 91, N′-Hydroxy-N-(4-(trifluoromethyl)phenyl)-1H-imidazo[4,5-b]pyridine-7-carboximidamide]	2240	
O/N=C(\Nc1ccc(F)c(Cl)c1)c1ccc(F)c2nc[nH]c12 [Example 5, N-(3-Chloro-4-fluorophenyl)-4-fluoro-N′-hydroxy-1H-benzo[d]imidazole-7-carboximidamide]	542	
O/N=C(\Nc1ccc(F)c(Cl)c1)c1ccnc2nc(NCCN3CC[C@H](O)C3)[nH]c12 [Example 279, (S)—N-(3-chloro-4-fluorophenyl)-N′-hydroxy-2-((2-(3-hydroxypyrrolidin-1-yl)ethyl)amino)-1H-imidazo[4,5-b]pyridine-7-carboximidamide]	5280	
O/N=C(\Nc1ccc(F)c(C(F)(F)F)c1)c1ccnc2[nH]c(CCl)nc12 [Example 170, 2-(Chloromethyl)-N-(4-fluoro-3-(trifluoromethyl)phenyl)-N′-hydroxy-3H-imidazo[4,5-b]pyridine-7-carboximidamide]	1940	
CC(O)CNc1nc2c(F)c(F)cc(/C(=N/O)Nc3ccc(F)c(Cl)c3)c2[nH]1 (stereo not shown) [Example 293, N-(3-chloro-4-fluorophenyl)-4,5-difluoro-N′-hydroxy-2-((2-hydroxypropyl)amino)-1H-benzo[d]imidazole-7-carboximidamide]	3000	
O/N=C(\Nc1ccc(F)c(Cl)c1)c1ccc(Cl)c2nc[nH]c12 [Example 6, 4-Chloro-N-(3-chloro-4-fluorophenyl)-N′-hydroxy-1H-benzo[d]imidazole-7-carboximidamide]	793	
CN(C)CC(O)c1nc2nccc(/C(=N/O)Nc3ccc(F)c(Cl)c3)c2[nH]1 (stereo not shown) [Example 195, N-(3-Chloro-4-fluorophenyl)-2-(2-(dimethylamino)-1-hydroxyethyl)-N′-hydroxy-1H-imidazo[4,5-b]pyridine-7-carboximidamide]	1160	
CC(C)NCc1nc2c(/C(=N/O)Nc3ccc(F)c(Cl)c3)cc(F)c(F)c2[nH]1 [Example 51, N-(3-Chloro-4-fluorophenyl)-6,7-difluoro-N′-hydroxy-2-((isopropylamino)methyl)-1H-benzo[d]imidazole-4-carboximidamide]	566	
Cn1nccc1CNc1nc2nccc(/C(=N/O)Nc3ccc(F)c(Cl)c3)c2[nH]1 [Example 358, N-(3-chloro-4-fluorophenyl)-N′-hydroxy-2-(((1-methyl-1H-pyrazol-5-yl)methyl)amino)-1H-imidazo[4,5-b]pyridine-7-carboximidamide]		8790
CCN(CC)CCNc1nc2c(F)ccc(/C(=N/O)Nc3ccc(F)c(Cl)c3)c2[nH]1 [Example 375, N-(3-chloro-4-fluorophenyl)-2-((2-(diethylamino)ethyl)amino)-4-fluoro-N′-hydroxy-1H-benzo[d]imidazole-7-carboximidamide]		1190
CN1CCCC(Nc2nc3nccc(/C(=N/O)Nc4ccc(F)c(Cl)c4)c3[nH]2)C1 (stereo not shown) [Example 278, N-(3-chloro-4-fluorophenyl)-N′-hydroxy-2-((1-methylpiperidin-3-yl)amino)-1H-imidazo[4,5-b]pyridine-7-carboximidamide]	1070	
O/N=C(\Nc1ccc(F)c(Cl)c1)c1cc(F)c(F)c2nc(NCCN3CCOCC3)[nH]c12 [Example 23, N-(3-Chloro-4-fluorophenyl)-4,5-difluoro-N′-hydroxy-2-((2-morpholinoethyl)amino)-1H-benzo[d]imidazole-7-carboximidamide]	346	
COc1cccc(N/C(=N\O)c2ccnc3nc[nH]c23)c1 [Example 92, N′-Hydroxy-N-(3-methoxyphenyl)-1H-imidazo[4,5-b]pyridine-7-carboximidamide]	3890	
CS(=O)(=O)NCc1nc2nccc(/C(=N/O)Nc3ccc(F)c(Cl)c3)c2[nH]1 [Example 181, N-(3-Chloro-4-fluorophenyl)-N′-hydroxy-2-(methylsulfonamidomethyl)-1H-imidazo[4,5-b]pyridine-7-carboximidamide]	8970	
CN(C)CCNc1nc2c(F)ccc(/C(=N/O)Nc3cccc(Br)c3)c2[nH]1 [Example 383, N-(3-bromophenyl)-2-((2-(dimethylamino)ethyl)amino)-4-fluoro-N′-hydroxy-1H-benzo[d]imidazole-7-carboximidamide]		319
O/N=C(\Nc1ccc(F)c(Cl)c1)c1ccnc2nc(CCN3CCC3)[nH]c12 [Example 259, 2-(2-(azetidin-1-yl)ethyl)-N-(3-chloro-4-fluorophenyl)-N′-hydroxy-1H-imidazo[4,5-b]-pyridine-7-carboximidamide]	1300	

SMILES	EC50 [1] [nM]	EC50 [2] [nM]
O=S(=O)(NCc1nc2nccc(/C(=N/O)Nc3ccc(F)c(Cl)c3)c2[nH]1)c1ccccc1 [Example 180, N-(3-Chloro-4-fluorophenyl)-N′-hydroxy-2-(phenylsulfonamidomethyl)-1H-imidazo[4,5-b]pyridine-7-carboximidamide]	1410	
O/N=C(\Nc1ccc(F)c(Cl)c1)c1cc(F)c(F)c2nc(NCC3CCCNC3)[nH]c12 (stereo not shown) [Example 304, N-(3-chloro-4-fluorophenyl)-4,5-difluoro-N′-hydroxy-2-((piperidin-3-ylmethyl)amino)-1H-benzo[d]imidazole-7-carboximidamide]		> 10000
COCCNc1nc2nccc(C(=NO)Nc3ccc(F)c(Cl)c3)c2[nH]1 [Example 212, N-(3-chloro-4-fluorophenyl)-N′-hydroxy-2-((2-methoxyethyl)amino)-1H-imidazo[4,5-b]pyridine-7-carboximidamide]	876	
O/N=C(\Nc1ccc(F)c(Cl)c1)c1ccnc2nc(NC3CCOCC3)[nH]c12 [Example 228, N-(3-chloro-4-fluorophenyl)-N′-hydroxy-2-((tetrahydro-2H-pyran-4-yl)amino)-1H-imidazo[4,5-b]pyridine-7-carboximidamide]	2140	
CN(C)[C@@H]1CCC[C@H](Nc2nc3c(F)c(F)cc(/C(=N/O)Nc4ccc(F)c(Cl)c4)c3[nH]2)C1 [Example 440, N-(3-chloro-4-fluorophenyl)-2-(((1S,3R)-3-(dimethylamino)cyclohexyl)amino)-4,5-difluoro-N′-hydroxy-1H-benzo[d]imidazole-7-carboximidamide]		6660
CN(C)CCCc1nc2c(F)c(F)cc(/C(=N/O)Nc3ccc(F)c(Cl)c3)c2[nH]1 [Example 199, N-(3-Chloro-4-fluorophenyl)-2-[3-(dimethylamino)propyl]-6,7-difluoro-N′-hydroxy-3H-benzimidazole-4-carboximidamide]	4490	
O/N=C(\Nc1ccc(Cl)cc1)c1ccnc2nc[nH]c12 [Example 87, N-(4-Chlorophenyl)-N′-hydroxy-1H-imidazo[4,5-b]pyridine-7-carboximidamide]	846	
O/N=C(\Nc1ccc(F)c(Cl)c1)c1cc(F)c(F)c2[nH]c(CNCC3CC3)nc12 [Example 49, N-(3-Chloro-4-fluorophenyl)-2-(((cyclopropylmethyl)amino)methyl)-4,5-difluoro-N′-hydroxy-1H-benzo[d]imidazole-7-carboximidamide]	1060	
O/N=C(\Nc1ccc(F)c(Cl)c1)c1cc(F)c(F)c2nc(NCCCN3CCCC3)[nH]c12 [Example 434, N-(3-chloro-4-fluorophenyl)-4,5-difluoro-N′-hydroxy-2-((3-(pyrrolidin-1-yl)propyl)amino)-1H-benzo[d]imidazole-7-carboximidamide]		1240
CN(C)CCCNc1nc2c(F)ccc(/C(=N/O)Nc3ccc(F)c(Cl)c3)c2[nH]1 [Example 388, N-(3-chloro-4-fluorophenyl)-2-((3-(dimethylamino)propyl)amino)-4-fluoro-N′-hydroxy-1H-benzo[d]imidazole-7-carboximidamide]		939
O/N=C(\Nc1cccc(Cl)c1)c1cc(F)c(F)c2nc(CNCC3CC3)[nH]c12 [Example 25, N-(3-Chlorophenyl)-2-(((cyclopropylmethyl)amino)methyl)-4,5-difluoro-N′-hydroxy-1H-benzo[d]imidazole-7-carboximidamide]	1460	
O/N=C(\Nc1ccc(F)c(-c2ccccc2)c1)c1ccnc2nc[nH]c12 [Example 77, N-(6-Fluoro-[1,1′-biphenyl]-3-yl)-N′-hydroxy-1H-imidazo[4,5-b]pyridine-7-carboximidamide]	2290	
O/N=C(\Nc1cccc2occc12)c1ccnc2nc[nH]c12 [Example 67, N-(Benzofuran-4-yl)-N′-hydroxy-1H-imidazo[4,5-b]pyridine-7-carboximidamide]	583	
O/N=C(\Nc1ccc(F)c(Cl)c1)c1cc(F)c(F)c2nc(N[C@@H]3CCCNC3)[nH]c12 [Example 446, (R)—N-(3-chloro-4-fluorophenyl)-4,5-difluoro-N′-hydroxy-2-(piperidin-3-ylamino)-1H-benzo[d]imidazole-7-carboximidamide]		1490
CN(C)CCCNc1nc2c(F)c(F)cc(/C(=N/O)Nc3cccc(Cl)c3)c2[nH]1 [Example 385, N-(3-chlorophenyl)-2-((3-(dimethylamino)propyl)amino)-4,5-difluoro-N′-hydroxy-1H-benzo[d]imidazole-7-carboximidamide]		580
O/N=C(\Nc1ccc(F)cc1)c1ccnc2nc[nH]c12 [Example 89, N-(4-Fluorophenyl)-N′-hydroxy-1H-imidazo[4,5-b]pyridine-7-carboximidamide]	943	
O/N=C(\Nc1cc(Cl)c(F)cc1F)c1ccnc2nc[nH]c12 [Example 62, N-(5-Chloro-2,4-difluorophenyl)-N′-hydroxy-1H-imidazo[4,5-b]pyridine-7-carboximidamide]	385	
